Columns and labels:
[1] = system: Gas activity (cAMP content in cartilage); assay: cAMP assay in tibial articular cartilage of drug-treated DMM mice; format: in vivo, mouse
Experimental: Drug treatment studies: In twelve-week old male wild type C57BL/6 mice that received DMM surgeries, vehicle (PBS), paroxetine (5 mg/kg/day), fluoxetine (5 mg/kg/day), gallein (10 mg/kg/day) or indomethacin (2.5 mg/kg/day) were administered daily by ip injection. Drug treatment was initiated 8 weeks following DMM to determine the role of GRK2 signaling in the progression of OA. Short term drug treatment study: To evaluate the acute effect of drug treatments, GRK2^f/f mice received sham or DMM surgery followed by treatment with vehicle, paroxetine, gallein, fluoxetine, or indomethacin with the doses indicated above for 1 week beginning at 8 weeks post DMM. All mice were sacrificed 9 weeks post DMM, 21 weeks of age, for analysis of OA progression. Gas activity was measured by quantifying cAMP content in cartilage pooled from 3 mice. Tibial cartilage was dissected out and snap frozen in liquid Nitrogen. As positive control, tibial cartilage obtained from normal mice was treated with 0.5 mM 3-isobutyl-1-methylxanthine (IBMX) for 30 minutes, followed by 0.1 mM Forskolin for 15 minutes, then snap frozen in liquid Nitrogen. For human cartilage cAMP content, 70 mg frozen cartilage were used. Frozen cartilage was pulverized using 500 μL lysis buffer as we have previously described (H. K. Le Bleu, Anal Biochem, 518, 134-138 (2017)). cAMP content was quantified using the Cyclic AMP XP Assay kit (Cell Signaling, #4339) and following manufacturer's protocol, with 0.5 mM IBMX added to the lysis buffer to prevent phosphodiesterase mediated cAMP degradation during the extraction process. cAMP levels in different groups were normalized to that of sham mice or the vehicle treated human cartilage.

human OA cartilage [2] = assay: Ex vivo cultured human OA osteochondral plugs: IF staining and RT-qPCR; format: cell-based; settings: paroxetine 5 μM or gallein 10 μM, 48 hrs
Description: An Institutional Review Board-approved protocol was executed to collect discarded de-identified cartilage from patients. For the experiment described in FIG. 3A, we obtained acutely injured human cartilage (from patients undergoing arthroscopic surgery 4 weeks following meniscal injury, N=6) and OA cartilage (from patients undergoing arthroplasty, N=6). Normal controls were obtained from amputees' knees (N=6). Cartilage was fixed in formalin then processed and embedded in paraffin, 5-μm sections were used for immunofluorescence (IF) staining. For the experiment described in FIG. 7, OA osteochondral tissue was collected from patients undergoing total knee arthroplasty. Osteochondral plugs (8-mm diameter) were obtained and bone was flushed with saline solution to remove all bone marrow and blood cells. Plugs were then cultured overnight in low glucose DMEM at 5% CO2 and 37° C. The next morning plugs were treated with either vehicle phosphate buffer saline (PBS), paroxetine (5 μM), or gallein (10 μM), and the drug-containing culture medium was replenished after 24 hrs. After 48 hrs, plugs were fixed for 7 days in 10% neutral buffered formalin (NBF), decalcified for 2 weeks in 10% w/v EDTA, embedded in paraffin, and […] were cut and mounted for histological and IF staining. Alternatively, the cartilage was shaved from plugs and flash-frozen in liquid nitrogen for RNA extraction as described below. mRNA was isolated from human cartilage using the method we published recently, yielding RNA Integrity Number (RIN) values above 7.0 (53). cDNA was prepared using Iscript cDNA synthesis kit from Bio-rad following the manufacturer's protocol. cDNAs were qPCR amplified using TaqMan Gene Expression Assays, with GAPDH as the house keeping gene (ThermoFisher Scientific; described in Table 2) and the 7500 Fast Real-Time PCR System (Applied Biosystems). Paraffin sections were deparaffinized in three changes of xylene for five minutes each, rehydrated in ethanol (two changes of 100% ethanol, followed by two changes of 95% ethanol, followed by one change of 70% ethanol) and rinsed twice in deionized water. Antigen retrieval was performed for 30 minutes at 37° C. using 0.4% pepsin (Sigma P-7000) in 0.1M hydrochloric acid (HCl) and was followed by permeabilization for 30 minutes at room temperature using Triton X in tris buffered saline (TBS). Sections were then blocked for 1 hour at room temperature in 10% normal goat serum in 1×TBS. Tissue sections were incubated overnight at 4° C. with the rabbit anti-mouse primary antibody specific for the target protein (detailed in Table 1).

human OA cartilage [3] = assay: Ex vivo cultured human OA osteochondral plugs: cAMP assay; format: cell-based; settings: paroxetine 5 μM or gallein 10 μM, 48 hrs, versus vehicle
Description: An Institutional Review Board-approved protocol was executed to collect discarded de-identified cartilage from patients. For the experiment described in FIG. 3A, we obtained acutely injured human cartilage (from patients undergoing arthroscopic surgery 4 weeks following meniscal injury, N=6) and OA cartilage (from patients undergoing arthroplasty, N=6). Normal controls were obtained from amputees' knees (N=6). Cartilage was fixed in formalin then processed and embedded in paraffin, 5-μm sections were used for immunofluorescence (IF) staining. For the experiment described in FIG. 7, OA osteochondral tissue was collected from patients undergoing total knee arthroplasty. Osteochondral plugs (8-mm diameter) were obtained and bone was flushed with saline solution to remove all bone marrow and blood cells. […] Gas activity was measured by quantifying cAMP content in cartilage pooled from 3 mice. […] Frozen cartilage was pulverized using 500 μL lysis buffer as we have previously described (H. K. Le Bleu, Anal Biochem, 518, 134-138 (2017)). cAMP content was quantified using the Cyclic AMP XP Assay kit (Cell Signaling, #4339) and following manufacturer's protocol, with 0.5 mM IBMX added to the lysis buffer to prevent phosphodiesterase mediated cAMP degradation during the extraction process. cAMP levels in different groups were normalized to that of sham mice or the vehicle treated human cartilage.

[4] = 7 days of drug treatment from 8 weeks post-DMM

| SMILES | cAMP levels in the articular cartilage [1, 4] | cAMP levels in the articular cartilage ([1]; daily ip week 8 to 12) | ADAMTS5 mRNA expression (RT-qPCR) (human OA cartilage [2]) | ADAMTS5 protein expression (IF staining) (human OA cartilage [2]) | GRK2 mRNA expression (RT-qPCR) (human OA cartilage [2]) | GRK2 protein expression (IF staining) (human OA cartilage [2]) | MMP13 mRNA expression (RT-qPCR) (human OA cartilage [2]) | MMP13 protein expression (IF staining) (human OA cartilage [2]) | cAMP production (human OA cartilage [3]) |
| --- | --- | --- | --- | --- | --- | --- | --- | --- | --- |
| O=C1OC2(c3ccccc31)c1ccc(O)c(O)c1Oc1c2ccc(O)c1O [gallein] | restored | restored | did not achieve statistical significance | attenuated | not affected | reduced | did not achieve statistical significance | attenuated | significant increase |
| Fc1ccc([C@@H]2CCNC[C@H]2COc2ccc3c(c2)OCO3)cc1 [paroxetine] | restored | restored | significantly inhibited | significantly inhibited | not affected | reduced | significantly inhibited | significantly inhibited | significant increase |

— patent US20230404989A1, “GRK2 INHIBITION BY PAROXETINE AMELIORATES OSTEOARTHRITIS” (THE PENN STATE RESEARCH FOUNDATION, priority 2020, published 2023)
